# Like-named read-outs stand apart in the source and are kept apart here.
# Tested on: C. parvum strain UGA1
# Assay: C. parvum growth inhibition assay (Nluc luminescence in HCT-8 cells)
# Format: cell-based, Cryptosporidium parvum
# Settings: Cryptosporidium parvum; for inhibition at 1 µM / inhibition at 10 µM: HCT-8; for inhibition at 1 µM: read-out: % inh @ 1 uM C. parvum; for inhibition at 10 µM: read-out: % inh @ 10 uM C. parvum; for EC50: HCT-8, 48 h, C. parvum growth inhibition in HCT-8 cells, 48 hours, 6 concentrations 10-0.04 μM
# [1] = single point inhibition at 1 uM
# [2] = single point inhibition at 10 uM
# [3] = single point inhibition @ 10 uM
smiles,measurement,setting,value
"O=C(Nc1cc2[nH]c(-c3ccnc(C(F)(F)F)n3)cc2cn1)C1CC(O)C1 (centres unmarked) [Example 247, (1s,3s)-3-hydroxy-N-(2-(2-(trifluoromethyl)pyrimidin-4-yl)-1H-pyrrolo[3,2-c]pyridin-6-yl)cyclobutanecarboxamide]",inhibition at 1 µM,[1],33 to 66%
same,inhibition at 10 µM,[2],0 to 33%
"Cc1nn(C)cc1C(=O)Nc1cc2c(cn1)cc(-c1ccnc(NCC(F)(F)F)n1)n2C [Example 240, 1,3-dimethyl-N-(1-methyl-2-(2-(2,2,2-trifluoroethylamino)pyrimidin-4-yl)-1H-pyrrolo[3,2-c]pyridin-6-yl)-1H-pyrazole-4-carboxamide]",inhibition at 1 µM,[1],0 to 33%
same,inhibition at 10 µM,[2],0 to 33%
"c1cncc(-c2cc3cnc(NC4CCOCC4)cc3[nH]2)c1 [Example 72, 2-(pyridin-3-yl)-N-(tetrahydro-2H-pyran-4-yl)-1H-pyrrolo[3,2-c]pyridin-6-amine]",EC50,,> 1 µM
same,inhibition at 1 µM,single point inhibition @ 1 uM,0 to 33%
same,inhibition at 10 µM,[3],0 to 33%
"O=C(Nc1cc2[nH]c(-c3cnc(C4CC4)o3)cc2cn1)C1CC1 [Example 61, N-(2-(2-cyclopropyloxazol-5-yl)-1H-pyrrolo[3,2-c]pyridin-6-yl)cyclopropanecarboxamide]",EC50,,> 1 µM
"c1ccc(-c2cc3cnc(NC4CCOCC4)cc3[nH]2)nc1 [Example 349, 2-(pyridin-2-yl)-N-(tetrahydro-2H-pyran-4-yl)-1H-pyrrolo[3,2-c]pyridin-6-amine]",EC50,,> 1 µM
"Cn1c(C(F)(F)F)cc2cnc(NC(=O)C3CC3)cc21 [Example 77, N-(1-methyl-2-(trifluoromethyl)-1H-pyrrolo[3,2-c]pyridin-6-yl)cyclopropanecarboxamide]",EC50,,> 1 µM
"CC(C)n1cc(C(=O)Nc2cc3c(cn2)cc(-c2ccnc(NCC(F)F)n2)n3C)cn1 [Example 169, N-(2-(2-(2,2-difluoroethylamino)pyrimidin-4-yl)-1-methyl-1H-pyrrolo[3,2-c]pyridin-6-yl)-1-isopropyl-1H-pyrazole-4-carboxamide]",inhibition at 1 µM,single point inhibition @ 1 uM,0 to 33%
same,inhibition at 10 µM,[3],67 to 100%
Cc1cc(-c2cc3cnc(NC4CCOCC4)cc3[nH]2)ncn1 [Example 38],EC50,,> 1 µM
"CCCOc1nccc(-c2cc3cnc(NC(=O)c4cnn(C)c4)cc3[nH]2)n1 [Example 312, 1-methyl-N-(2-(2-propoxypyrimidin-4-yl)-1H-pyrrolo[3,2-c]pyridin-6-yl)-1H-pyrazole-4-carboxamide]",inhibition at 1 µM,[1],0 to 33%
same,inhibition at 10 µM,[2],0 to 33%
"c1ccc(Nc2cc3[nH]c(-c4cccnc4)cc3cn2)cc1 [Example 189, N-phenyl-2-(pyridin-3-yl)-1H-pyrrolo[3,2-c]pyridin-6-amine]",inhibition at 1 µM,single point inhibition @ 1 uM,0 to 33%
same,inhibition at 10 µM,[3],67 to 100%
"Cc1cc(-c2cc3cnc(NC(=O)C4CC(C)(O)C4)cc3[nH]2)ccn1 (centres unmarked) [Example 202, 3-hydroxy-3-methyl-N-(2-(2-methylpyridin-4-yl)-1H-pyrrolo[3,2-c]pyridin-6-yl)cyclobutanecarboxamide]",inhibition at 1 µM,[1],0 to 33%
same,inhibition at 10 µM,[2],67 to 100%
"Cc1cc(-c2cc3cnc(N)cc3[nH]2)ccn1 [Example 81, 2-(2-methylpyridin-4-yl)-1H-pyrrolo[3,2-c]pyridin-6-amine]",EC50,,> 1 µM
same,inhibition at 1 µM,single point inhibition @ 1 uM,0 to 33%
same,inhibition at 10 µM,[3],33 to 66%
"Cc1cc(-c2cc3cnc(NC(=O)c4cccc5c4cnn5C)cc3[nH]2)ccn1 [Example 288, 1-methyl-N-(2-(2-methylpyridin-4-yl)-1H-pyrrolo[3,2-c]pyridin-6-yl)-1H-indazole-4-carboxamide]",inhibition at 1 µM,[1],0 to 33%
same,inhibition at 10 µM,[2],0 to 33%
"Cn1cc(C(=O)Nc2cc3[nH]c(-c4cc(C#N)ccn4)cc3cn2)cn1 [Example 300, N-(2-(4-cyanopyridin-2-yl)-1H-pyrrolo[3,2-c]pyridin-6-yl)-1-methyl-1H-pyrazole-4-carboxamide]",inhibition at 1 µM,[1],0 to 33%
same,inhibition at 10 µM,[2],0 to 33%
"O=C(Nc1cc2[nH]c(C(F)(F)F)cc2cn1)C1CCC1 [Example 76, N-(2-(trifluoromethyl)-1H-pyrrolo[3,2-c]pyridin-6-yl)cyclobutanecarboxamide]",EC50,,> 1 µM
"Cc1cc(-c2cc3cnc(NC(=O)C4(C)CC4)cc3[nH]2)ccn1 [Example 95, 1-methyl-N-(2-(2-methylpyridin-4-yl)-1H-pyrrolo[3,2-c]pyridin-6-yl)cyclopropanecarboxamide]",EC50,,> 1 µM
"Cc1cc(-c2cc3cnc(NC(=O)CN(C)C)cc3n2C)ncn1 [Example 127, 2-(dimethylamino)-N-(1-methyl-2-(6-methylpyrimidin-4-yl)-1H-pyrrolo[3,2-c]pyridin-6-yl)acetamide]",EC50,,> 1 µM
"Cn1cc(C(=O)Nc2cc3[nH]c(CCCO)cc3cn2)cn1 [Example 89, N-(2-(3-hydroxypropyl)-1H-pyrrolo[3,2-c]pyridin-6-yl)-1-methyl-1H-pyrazole-4-carboxamide]",EC50,,> 1 µM
same,inhibition at 1 µM,single point inhibition @ 1 uM,0 to 33%
same,inhibition at 10 µM,[3],0 to 33%
"COc1nccc(-c2cc3cnc(NC(=O)c4cc(C)n(C)n4)cc3[nH]2)n1 [Example 292, N-(2-(2-methoxypyrimidin-4-yl)-1H-pyrrolo[3,2-c]pyridin-6-yl)-1,5-dimethyl-1H-pyrazole-3-carboxamide]",inhibition at 1 µM,[1],0 to 33%
same,inhibition at 10 µM,[2],0 to 33%
"COc1nccc(-c2cc3cnc(NC(=O)C(C)(C)C)cc3[nH]2)n1 [Example 297, N-(2-(2-methoxypyrimidin-4-yl)-1H-pyrrolo[3,2-c]pyridin-6-yl)pivalamide]",inhibition at 1 µM,[1],0 to 33%
same,inhibition at 10 µM,[2],0 to 33%
"Cc1cc(-c2cc3cnc(NC(=O)c4cnn(C)c4)cc3[nH]2)ncn1 [Example 328, 1-methyl-N-(2-(6-methylpyrimidin-4-yl)-1H-pyrrolo[3,2-c]pyridin-6-yl)-1H-pyrazole-4-carboxamide]",inhibition at 1 µM,[1],0 to 33%
same,inhibition at 10 µM,[2],0 to 33%
"O=C(Nc1cc2[nH]c(-c3ccncc3)cc2cn1)[C@@H]1CCOC1 [Example 135, (R)-N-(2-(pyridin-4-yl)-1H-pyrrolo[3,2-c]pyridin-6-yl)tetrahydrofuran-3-carboxamide]",inhibition at 1 µM,single point inhibition @ 1 uM,0 to 33%
same,inhibition at 10 µM,[3],67 to 100%
"Cn1c(-c2ccccn2)cc2cnc(NC(=O)C3CC3)cc21 [Example 129, N-(1-methyl-2-(pyridin-2-yl)-1H-pyrrolo[3,2-c]pyridin-6-yl)cyclopropanecarboxamide]",EC50,,> 1 µM
"Cn1c(-c2ccccc2)cc2cnc(NC(=O)C3CCOCC3)cc21 [Example 265, N-(1-methyl-2-phenyl-1H-pyrrolo[3,2-c]pyridin-6-yl)tetrahydro-2H-pyran-4-carboxamide]",inhibition at 1 µM,[1],0 to 33%
same,inhibition at 10 µM,[2],0 to 33%
"COc1ccc(Nc2cc3c(cn2)cc(-c2cnn(C)c2)n3C)cc1 [Example 203, N-(4-methoxyphenyl)-1-methyl-2-(1-methyl-1H-pyrazol-4-yl)-1H-pyrrolo[3,2-c]pyridin-6-amine]",inhibition at 1 µM,[1],0 to 33%
same,inhibition at 10 µM,[2],67 to 100%
"COc1nccc(-c2cc3cnc(NC(=O)[C@H]4C[C@@H](O)C4)cc3n2C)n1 [Example 163, (1s,3s)-3-hydroxy-N-(2-(2-methoxypyrimidin-4-yl)-1-methyl-1H-pyrrolo[3,2-c]pyridin-6-yl)cyclobutanecarboxamide]",inhibition at 1 µM,single point inhibition @ 1 uM,0 to 33%
same,inhibition at 10 µM,[3],67 to 100%
"Cn1c(-c2ccnc(NCC(F)(F)F)n2)cc2cnc(NC(=O)c3cnn(C4CCOC4)c3)cc21 (stereo in doubt) [Example 142, (R)-N-(1-methyl-2-(2-(2,2,2-trifluoroethylamino)pyrimidin-4-yl)-1H-pyrrolo[3,2-c]pyridin-6-yl)-1-(tetrahydrofuran-3-yl)-1H-pyrazole-4-carboxamide]",inhibition at 1 µM,single point inhibition @ 1 uM,67 to 100%
same,inhibition at 10 µM,[3],67 to 100%
"Cc1cccc(-c2cc3cnc(NC(=O)C4CC4)cc3n2C)c1 [Example 346, N-(1-methyl-2-m-tolyl-1H-pyrrolo[3,2-c]pyridin-6-yl)cyclopropanecarboxamide]",EC50,,> 1 µM
"N#Cc1cc2cnc(NC(=O)C3CC3)cc2[nH]1 [Example 180, N-(2-cyano-1H-pyrrolo[3,2-c]pyridin-6-yl)cyclopropanecarboxamide]",inhibition at 1 µM,single point inhibition @ 1 uM,0 to 33%
same,inhibition at 10 µM,[3],67 to 100%
"CC(C)c1cc2cnc(NC3CCOCC3)cc2[nH]1 [Example 359, 2-isopropyl-N-(tetrahydro-2H-pyran-4-yl)-1H-pyrrolo[3,2-c]pyridin-6-amine]",EC50,,> 1 µM
"Cc1cc(-c2cc3cnc(NC(=O)OC4CCOC4)cc3[nH]2)ccn1 (stereo in doubt) [Example 152, (R)-tetrahydrofuran-3-yl 2-(2-methylpyridin-4-yl)-1H-pyrrolo[3,2-c]pyridin-6-ylcarbamate]",inhibition at 1 µM,single point inhibition @ 1 uM,0 to 33%
same,inhibition at 10 µM,[3],67 to 100%
"CCOc1nccc(-c2cc3cnc(NC(=O)c4cn(CC5CCCO5)nc4C)cc3[nH]2)n1 (stereo in doubt) [Example 322, (S)-N-(2-(2-ethoxypyrimidin-4-yl)-1H-pyrrolo[3,2-c]pyridin-6-yl)-3-methyl-1-((tetrahydrofuran-2-yl)methyl)-1H-pyrazole-4-carboxamide]",inhibition at 1 µM,[1],0 to 33%
same,inhibition at 10 µM,[2],0 to 33%
"Cc1cc(-c2cc3cnc(NC(=N)C4CC4)cc3[nH]2)ccn1 [Example 96, N-(2-(2-methylpyridin-4-yl)-1H-pyrrolo[3,2-c]pyridin-6-yl)cyclopropanecarboximidamide]",EC50,,> 1 µM
"Cc1cc(-c2cc3cnc(NC(=O)C4CCCO4)cc3[nH]2)ccn1 (stereo in doubt) [Example 182, (S)-N-(2-(2-methylpyridin-4-yl)-1H-pyrrolo[3,2-c]pyridin-6-yl)tetrahydrofuran-2-carboxamide]",inhibition at 1 µM,single point inhibition @ 1 uM,0 to 33%
same,inhibition at 10 µM,[3],67 to 100%
"O=C(Nc1cc2[nH]c(C(F)(F)F)cc2cn1)C1CCOCC1 [Example 105, N-(2-(trifluoromethyl)-1H-pyrrolo[3,2-c]pyridin-6-yl)tetrahydro-2H-pyran-4-carboxamide]",EC50,,> 1 µM
"CCn1c(-c2cc(C)ncn2)cc2cnc(NC(=O)C3CC3)cc21 [Example 122, N-(1-ethyl-2-(6-methylpyrimidin-4-yl)-1H-pyrrolo[3,2-c]pyridin-6-yl)cyclopropanecarboxamide]",EC50,,> 1 µM
